Measurements taken from patent US20230404987A1, “METHOD OF TREATING BREAST CANCER” (Eisai R&D Management Co., Ltd., priority 2020, published 2023).
Values joined by “and” are separate entries in the source; they are usually repeats but may differ in a detail not shown here. Equal values may be shown once.

Assays:
[1] = test system: locally advanced or metastatic ER+, HER2-negative breast cancer; assay: Phase 1/2 study of Compound 1 QD PO: antitumor efficacy (best overall response, CBR, PFS); format: in vivo, human; conditions: for Confirmed partial responses / Clinical benefit rate (≥23 weeks) / Stable disease (SD) rate: response-evaluable subjects; for mPFS: started on 450 mg; for Median PFS: full analysis set; for Progression free survival, median (95% CI): FIG. 4, Example 3; for Progression free survival, median (95%): FIG. 3, Example 3
Description: (§1) Compound 1 was tested in a first-in-human, Phase 1/2 study in women with locally advanced or metastatic ER+, HER2-negative breast cancer. In this multicenter study, women with locally advanced or metastatic ER+, HER2− breast cancer were treated with Compound 1 administered QD, PO over a 28-day cycle after progression on at least 1 hormonal therapy and at least 1 additional therapy/regimen.
(§2) The primary objective of the Phase 1 was to determine the MTD and RP2D in pretreated subjects with ER+, HER2−metastatic breast cancer. Secondary objectives included safety and antitumor activity. The primary objective of the Phase 2 was to estimate the efficacy of this agent in terms of objective response rate (ORR), clinical benefit rate (CBR), and progression-free survival (PFS). Secondary objectives included safety. The trial was designed to exclude a lower limit of ORR of 5% at one-sided level of significance of 0.05 and a power of 90%.
Over 30 months, 130 patients were enrolled; 47 in the Phase 1 part and 83 in the Phase 2 part of the trial. A total of 105 subjects, including 73 subjects on 450 mg were response-evaluable.
Experiments conducted subsequent to those reported in Example 1 were directed to identify the parameters driving the activity of Compound 1 in the trial population. Two parameters were of particular interest: 1) PgR status, and 2) ESR1 mutant type and allele frequency. PFS was used in these analyses because it is a continuous variable. […] The effect of baseline circulating ESR1, of particular ESR1 mutants and their allele frequency was unknown.
The effect of PgR positivity and the detection prior to treatment of ESR1 mutations Y537S and D538G on median PFS was then investigated using the Kaplan-Meier method. The effect of ESR1 clonality was also investigated since the presence of simultaneous clones of ESR1 mutations likely indicates very advanced or complex disease. Of note, the allele frequencies of the different ESR1 mutants were not identical, indicating the presence of multiple clones in a tumor, rather than multiple mutations in the same tumor ESR1 gene. For the purpose of these analyses, clonal Y537S was defined as ESR1 Y537S mutation detected in a pre-treatment whole blood sample at a mutant allele frequency (MAF)≥0.5% with a MAF for D538G<0.5%. Conversely, clonal D538G was defined as ESR1 D538G mutation detected in a pre-treatment whole blood sample at a MAF≥0.5% with a MAF for Y537S<0.5%.
Following data analysis described above, patients remained in the Phase 2 study reported in Example 1, and clinical data collection continued. The primary objective of this study was to estimate the efficacy of Compound 1 in terms of best overall response rate (ORR), duration of response (DoR), clinical benefit rate, and progression-free survival (PFS) in all subjects and in those with and without ERα mutation (ERαMUT).
83 patients were treated with 450 mg in the Phase 2 study of Example 1. Additionally, 11 patients who were treated with 450 mg in the Phase 1 part of the trial (also discussed in Example 1) have been grouped with these 83 Phase 2 patients for discussion in this example. […] Patients were heavily pretreated, and 85% of the patients received prior CDK4/6 inhibitors.

[2] = test system: women with locally advanced or metastatic ER+, HER2-negative breast cancer; assay: Phase 1/2 study of Compound 1 QD PO: safety (DLT, adverse events); format: in vivo, human
Description: as §1, §2
The Phase 1 part evaluated once daily doses from 100 to 600 mg. […] Consequently, the dose of 450 mg was selected as the RP2D.

[3] = test system: PDX breast cancer models, including those with mutated ESR1; conditions: multiple PDX breast cancer models; cited from earlier work
[4] = 450 mg, N = 72, response-evaluable set, Example 3
[5] = 450 mg, N = 73, response evaluable set, Example 1
[6] = 10 patients with clonal ESR1 Y537S, 450 mg, Example 3
[7] = Clonal D538G (N = 17), 450 mg, Example 3
[8] = Clonal Y537S (N = 10), 450 mg, Example 3
[9] = Clonal Y537S or Clonal D538G (N = 27), 450 mg, Example 3
[10] = Polyclonal Y537S and D538G (N = 2), 450 mg, Example 3
[11] = Y537S and D538G Negatives (N = 43), 450 mg, Example 3
[12] = all doses, N = 105, response evaluable set, Example 1

CN(C)C(=O)/C=C/CNCCOc1ccc(/C(=C(/CC(F)(F)F)c2ccccc2)c2ccc3[nH]nc(F)c3c2)cn1 [Compound 1]
Confirmed partial responses ([1]; 450 mg dose, 90% confidence limits 8.7%-23.7): 15%
Median PFS (Kaplan-Meier) ([1]; 450 mg starters with clonal ESR1 Y537S or clonal D538G mutations, Example 2): 5.5 months
Median time to response (min, max) ([1]; 450 mg, N = 72, Example 3): 2.7 (1.6, 5.5) mo
Median duration of response (min, max) ([1]; 450 mg, N = 72, Example 3, descriptive median): 7.5 (3.5, 16.6) mo
Best overall response: Complete response [1, 4]: 0 n (%)
Best overall response: Confirmed partial response [1, 4]: 12 (17) n (%)
Best overall response: Not evaluable [1, 4]: 2 (3) n (%)
Best overall response: Progressive disease [1, 4]: 27 (38) n (%)
Best overall response: Stable disease [1, 4]: 31 (43) n (%)
Clinical benefit rate (CR + PR + SD ≥ 23 weeks) [1, 4]: 29 (40) n (%)
ORR (95% confidence interval) [1, 4]: 17 (9, 27) %
Best overall response: Complete response (CR) [1, 5]: 0 N (%)
Best overall response: Confirmed partial response (PR) [1, 5]: 11 (15) N (%)
Best overall response: Not evaluable [1, 5]: 3 (4) N (%)
Best overall response: Progressive disease (PD) [1, 5]: 26 (36) N (%)
Clinical benefit rate (CR + PR + SD lasting for ≥23 weeks) [1, 5]: 24 (33) N (%)
Clinical benefit rate (≥23 weeks) ([1]; 450 mg): 33%
Stable disease (SD) rate ([1]; 450 mg): 45%
Partial responses [1, 6]: 30%
Stable disease [1, 6]: 40%
mPFS ([1]; All subjects, PgR negative, N=34): 2.1 months
mPFS ([1]; All subjects, PgR positive, N=38): 5.5 months
Clinical benefit rate [1, 7]: 6 (35) n (%)
Complete response [1, 7]: 0 n (%)
Confirmed partial response [1, 7]: 0 n (%)
Not evaluable [1, 7]: 0 n (%)
Progressive disease [1, 7]: 7 (41) n (%)
Stable disease [1, 7]: 10 (59) n (%)
Median PFS ([1]; Clonal D538G, 450 mg, Example 3): 5.4 mo
Progression free survival, median (95% CI) ([1]; Clonal D538G, N=19, 13 events): 5.4 (1.7, 7.2) months
mPFS ([1]; Clonal D538G, PgR negative, N=3): 1.7 months
mPFS ([1]; Clonal D538G, PgR positive (≥1%), N=10): 4.5 months
Clinical benefit rate [1, 8]: 6 (60) n (%)
Complete response [1, 8]: 0 n (%)
Confirmed partial response [1, 8]: 3 (30) n (%)
Not evaluable [1, 8]: 0 n (%)
Progressive disease [1, 8]: 3 (30) n (%)
Stable disease [1, 8]: 4 (40) n (%)
mPFS ([1]; Clonal Y537S + Clonal D538G (combined data), PgR negative, N=3): 1.7 months
mPFS ([1]; Clonal Y537S + Clonal D538G (combined data), PgR positive, N=16): 7.2 months
Clinical benefit rate [1, 9]: 12 (44) n (%)
Complete response [1, 9]: 0 n (%)
Confirmed partial response [1, 9]: 3 (11) n (%)
Not evaluable [1, 9]: 0 n (%)
Progressive disease [1, 9]: 10 (37) n (%)
Stable disease [1, 9]: 14 (52) n (%)
Median PFS ([1]; Clonal Y537S or Clonal D538G, 450 mg, Example 3): 5.4 mo
Median PFS ([1]; Clonal Y537S, 450 mg, Example 3): 7.3 mo
Progression free survival, median (95% CI) ([1]; Clonal Y537S, N=10, 8 events): 7.3 (0.8, 11.2) months and 7.3 months
mPFS ([1]; Clonal Y537S, PgR positive (≥1%), N=6): 13.0 months
Progression free survival, median (95%) ([1]; PgR Negative (≤1% positive cells), N=34, 20 events): 2.1 (1.7, 7.4) months
Progression free survival, median (95%) ([1]; PgR Positive (≥1% positive cells), N=38, 24 events): 5.4 (2.0, 8.8) months
Clinical benefit rate [1, 10]: 1 (50) n (%)
Complete response [1, 10]: 0 n (%)
Confirmed partial response [1, 10]: 0 n (%)
Not evaluable [1, 10]: 0 n (%)
Progressive disease [1, 10]: 1 (50) n (%)
Stable disease [1, 10]: 1 (50) n (%)
Median PFS ([1]; Polyclonal Y537S and D538G, 450 mg, Example 3): 3.5 mo
Progression free survival, median (95% CI) ([1]; Polyclonal Y537S and D538G, N=4, 3 events): 3.5 (1.7, 5.4) months
mPFS ([1]; Polyclonal, PgR positive, N=3): 2.6 months
Clinical benefit rate [1, 11]: 16 (37) n (%)
Complete response [1, 11]: 0 n (%)
Confirmed partial response [1, 11]: 9 (21) n (%)
Not evaluable [1, 11]: 2 (5) n (%)
Progressive disease [1, 11]: 16 (37) n (%)
Stable disease [1, 11]: 16 (37) n (%)
Median PFS ([1]; Y537S and D538G Negatives, 450 mg, Example 3): 3.8 mo
Progression free survival, median (95% CI) ([1]; Y537S and D538G negatives, N=61, 33 events): 3.8 (2.0, 7.3) months
mPFS ([1]; Y537S/D538G absent, PgR negative, N=31): 2.1 months
mPFS ([1]; Y537S/D538G absent, PgR positive, N=19): 3.8 months
Median progression free survival ([1]; all 94 patients treated with 450 mg, Example 3): 5.1 months
Best overall response: Complete response (CR) [1, 12]: 0 N (%)
Best overall response: Confirmed partial response (PR) [1, 12]: 13 (12) N (%)
Best overall response: Not evaluable [1, 12]: 7 (7) N (%)
Best overall response: Progressive disease (PD) [1, 12]: 37 (35) N (%)
Clinical benefit rate (CR + PR + SD lasting for ≥23 weeks) [1, 12]: 36 (34) N (%)
Clinical benefit rate (≥23 weeks) ([1]; all doses): 34%
Stable disease (SD) rate ([1]; all doses): 46%
Confirmed partial responses ([1]; all doses, 90% confidence limits 7.5%-19%): 12%
Anti-tumor activity (conclusion) ([1]; monotherapy, once daily 450 mg, heavily pretreated ER+, HER2−, metastatic breast cancer patients): demonstrated anti-tumor activity
Median PFS (Kaplan-Meier) ([1]; subjects who started at the 450 mg dose, 95% CI 3.2-6.2, Examples 1 and 2): 3.8 months
Dose-limiting toxicities (DLTs) observed ([2]; 600 mg cohort, in 2 of 7 subjects (Grade 3 fatigue and Grade 3 drug eruption)): 2 DLTs
Dose-limiting toxicities (DLTs) ([2]; Phase 1, once daily doses up to 450 mg): No dose-limiting toxicities
Grade 1 sinus bradycardia (asymptomatic) ([2]; in vivo): 35%
Grade 2 QTcF prolongation ([2]; in vivo): 2 subjects
Grade 2 sinus bradycardia (symptomatic, no intervention needed) ([2]; in vivo): 4%
Grade 3 QTcF prolongation ([2]; in vivo): 3 subjects
Treatment-related deaths ([2]; in vivo): no treatment-related deaths
RP2D (recommended phase 2 dose) ([2]; once daily, PO): 450 mg
Grade 4 AE ([2]; serum bilirubin, urinary tract obstruction, hyponatremia, all considered related to disease progression): Three
Grade 2 or higher adverse event: AST increase ([2]; subjects, all doses): 11%
Grade 2 or higher adverse event: anemia ([2]; subjects, all doses): 20%
Grade 2 or higher adverse event: diarrhea ([2]; subjects, all doses): 11%
Grade 2 or higher adverse event: fatigue ([2]; subjects, all doses): 16%
Grade 2 or higher adverse event: nausea ([2]; subjects, all doses): 14%
Antitumor activity [3]: significant antitumor activity
